{
  "source": "patent US20210106687A1",
  "about": "“BOLAAMPHIPHILIC COMPOUNDS, COMPOSITIONS AND USES THEREOF” (Lauren Sciences LLC, priority 2012, published 2021)",
  "key": {"b.End3 cells [1]": {"test_system": "b.End3 cells", "test": "Internalization of CF by the cells in vitro, confocal fluorescence microscopy", "format": "cell-based, mouse", "conditions": "5 h at 37° C.; FIG. 4", "procedure": "b.End3 cells were grown on 24-well plates or on coverslips (for FACS and fluorescence microscopy analysis, respectively). The medium was replaced with culture medium without serum and CF solution, or tested bolavesicles (equivalent to 0.5 μg/mL CF), or equivalent volume of the medium were added to the cells and incubated for 5 hr at 4° C. or at 37° C. At the end of the incubation, cells were extensively washed with complete medium and with PBS, and were either detached from the plates using trypsin-EDTA solution (Biological Industries Ltd., Beit Haemek, Israel) and analyzed by FACS (FACSCalibur Flow Cytometer, BD Biosciences, USA), or fixed with 2.5% formaldehyde in PBS, washed twice with PBS, mounted on slides using Mowiol-based mounting solution and analyzed using a FV1000-IX81 confocal microscope (Olympus, Tokyo, Japan) equipped with 60× objective. All the images were acquired using the same imaging settings and were not corrected or modified."}, "b.End3 cells [2]": {"test_system": "b.End3 cells", "test": "Internalization of CF by the cells in vitro, FACS", "format": "cell-based, mouse", "conditions": "equivalent to 0.5 μg/mL CF", "experimental": "b.End3 immortalized mouse brain capillary endothelium cells were kindly provided by Prof Philip Lazarovici (Institute for Drug Research, School of Pharmacy, The Hebrew University of Jerusalem, Israel). The b.End3 cells were cultured in DMEM medium supplemented with 10% fetal bovine serum, 2 mM L-Glutamine, 100 IU/mL penicillin and 100 μg/mL streptomycin (Biological Industries Ltd., Beit Haemek, Israel). The cells were maintained in an incubator at 37° C. in a humidified atmosphere with 5% CO2.\nAll the images were acquired using the same imaging settings and were not corrected or modified.\nThe inventors investigated whether this trend is still apparent in the interaction of magnetic and non-magnetic bolavesicles with brain capillary endothelial cells. To this end, the inventors used murine b.End3 cells, which are one of the most extensively used cell lines for brain uptake and permeability studies^25. […] Previously, the inventors extensively used ^b.End3 cells to analyze uptake and intracellular fate of bolavesicles encapsulating model proteins and marker compounds^8."}},
  "data": [
    {"substance": "carboxyfluorescein [CF]", "values": [
      {"measurement": "Endocytosis of CF by b.End3 cells (confocal microscopy)", "setting": "b.End3 cells [1]", "result": "endocytosed by the bEnd.3 cells only when encapsulated within the bolavesicles"},
      {"measurement": "Internalization by b.End3 cells (FACS)", "setting": "b.End3 cells [2]; 5 hr at 4° C.", "result": "not able to internalize"},
      {"measurement": "Internalization by b.End3 cells (FACS)", "setting": "b.End3 cells [2]; 5 hr at 37° C.", "result": "not able to internalize"}
    ]}
  ]
}
